From patent US20170291905A1, “ARGININE […] INHIBITORS AND USES THEREOF” (Epizyme, Inc., priority 2014, published 2017) come the findings set out here.

For orientation: IC50 means the point on the concentration scale where inhibition reaches its midpoint.

Molecules are shown by their SMILES.

Sequence of full-length human PRMT8 isoform 1 (Q9NR22 whole entry, canonical isoform): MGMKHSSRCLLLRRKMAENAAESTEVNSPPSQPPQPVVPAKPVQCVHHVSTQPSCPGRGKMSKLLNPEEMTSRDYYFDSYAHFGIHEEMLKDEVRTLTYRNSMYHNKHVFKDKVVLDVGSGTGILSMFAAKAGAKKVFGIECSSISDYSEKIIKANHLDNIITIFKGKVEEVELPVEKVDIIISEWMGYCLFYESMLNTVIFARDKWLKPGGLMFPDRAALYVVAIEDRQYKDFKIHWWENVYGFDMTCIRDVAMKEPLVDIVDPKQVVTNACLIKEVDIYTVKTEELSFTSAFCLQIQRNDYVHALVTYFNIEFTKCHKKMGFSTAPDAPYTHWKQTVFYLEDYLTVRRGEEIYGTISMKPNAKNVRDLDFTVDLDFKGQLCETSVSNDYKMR

The assay concerns the target full-length human PRMT8 isoform 1 (Homo sapiens, UniProt Q9NR22). The experiment in a line: PRMT8 biochemical assay (3H-SAM Flashplate, histone H4 31-45 peptide). The note with it: 1.5 nM PRMT8, 30 min preincubation, 150 nM peptide. The procedure, abridged: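 Purified untagged full-length PRMT8 (1.5 nM) preincubated with compound 30 min at room temperature in 20 mM Bicine pH 7.6, then reacted with 150 nM biotinylated H4 peptide, 50 nM 3H-SAM plus 550 nM SAM, 2% DMSO. Stopped with 400 uM cold SAM; peptide captured on streptavidin Flashplate, counted; % inhibition vs DMSO/SAH controls fitted for IC50.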
With `CCC1(CC)C[C@]2(CC[C@@H](c3n[nH]cc3CN(C)CCNC)CC2)NC1=O` [compound 48, (5r,8r)-3,3-diethyl-8-(4-((methyl(2-(methylamino)ethyl)amino)methyl)-1H-pyrazol-3-yl)-1-azaspiro[4.5]decan-2-one], the IC50 is 70.6 nM. In turn, `CNCCN(C)Cc1c[nH]nc1C1CCC(COC)(COCC2CCOCC2)CC1` (stereo not drawn) [compound 45] displayed an IC50 of 11.2 nM.

`CCC1(CC)C[C@]2(CC[C@H](c3n[nH]cc3CN(C)CCNC)CC2)NC1=O` [compound 47, (5s,8s)-3,3-diethyl-8-(4-((methyl(2-(methylamino)ethyl)amino)methyl)-1H-pyrazol-3-yl)-1-azaspiro[4.5]decan-2-one] yielded an IC50 of 14.9 nM. Regarding `CNCCN(C)Cc1c[nH]nc1C1CCC(COCCC2CCOCC2)(COCCC2CCOCC2)CC1` [compound 40], the IC50 is 45.5 nM. For the molecule `CNCCN(C)Cc1c[nH]nc1C1CCC(COCC2CC2)(COCC2CC2)CC1` [compound 41, N1-((3-(4,4-bis((cyclopropylmethoxy)methyl)cyclohexyl)-1H-pyrazol-4-yl)methyl)-N1,N2-dimethylethane-1,2-diamine], half-maximal inhibition (IC50) required 9.27 nM. The result for `CNCCN(C)Cc1c[nH]nc1C1CCC(CO)(CO)CC1` [compound 44, (4-(4-((methyl(2-(methylamino)ethyl)amino)methyl)-1H-pyrazol-3-yl)cyclohexane-1,1-diyl)dimethanol] reads 34.4 nM; that for `CNCCN(C)Cc1c[nH]nc1C1=CCC2(CC1)CC(C)(C)CO2` (stereo not drawn) [compound 46, N1-((3-(3,3-dimethyl-1-oxaspiro[4.5]dec-7-en-8-yl)-1H-pyrazol-4-yl)methyl)-N1,N2-dimethylethane-1,2-diamine], 24.6 nM. In the case of `CN(C)CCN(C)Cc1c[nH]nc1[C@H]1CC[C@@]2(CC1)CC(C)(C)CO2` [compound 42, N1-((3-((5S,8S)-3,3-dimethyl-1-oxaspiro[4.5]decan-8-yl)-1H-pyrazol-4-yl)methyl)-N1,N2,N2-trimethylethane-1,2-diamine], the IC50 stood at 33.8 nM. Take `CCOCCOCC1(COCCOCC)CCC(c2n[nH]cc2CN(C)CCNC)CC1` [compound 39, N1-((3-(4,4-bis((2-ethoxyethoxy)methyl)cyclohexyl)-1H-pyrazol-4-yl)methyl)-N1,N2-dimethylethane-1,2-diamine]: the IC50 is 139 nM. `CC[C@H]1CC[C@@H](c2n[nH]cc2CN(C)CCNC)CC1` [compound 1] registered a 50% inhibitory concentration (IC50) of 11.1 nM.

Turning to `CNCCN(C)Cc1ccnn1[C@H]1CC[C@@]2(CC1)CC(C)(C)CO2` [compound 49, N1-((1-((5s,8s)-3,3-dimethyl-1-oxaspiro[4.5]decan-8-yl)-1H-pyrazol-5-yl)methyl)-N1,N2-dimethylethane-1,2-diamine], the IC50 stood at 16.7 nM. Regarding `CN(C)CCN(C)Cc1c[nH]nc1[C@H]1CC[C@]2(CC1)CC(C)(C)CO2` [compound 43, N1-((3-((5r,8r)-3,3-dimethyl-1-oxaspiro[4.5]decan-8-yl)-1H-pyrazol-4-yl)methyl)-N1,N2,N2-trimethylethane-1,2-diamine], the concentration for half-maximal inhibition (IC50) is 97.2 nM.
